How the values were obtained:
[1] = target: RsmI (G12-P258) (Escherichia coli, UniProt P67087); experiment: X-ray crystal structure, […] Å; type: binding; conditions: co-crystallised, AdoMet:RsmI 5:1; site between NTD and CTD
[2] = target: RsmI (full-length) (Escherichia coli, UniProt P67087, F144A); experiment: isothermal titration calorimetry, one-site model; type: binding; conditions: read-out: Ka (10^4/M) (converted)
[3] = target: RsmI (full-length) (Escherichia coli, UniProt P67087, Y169A); experiment: isothermal titration calorimetry, one-site model; type: binding; conditions: read-out: Ka (10^4/M) (converted)
[4] = target: RsmI (full-length) (Escherichia coli, UniProt P67087); experiment: isothermal titration calorimetry, one-site model; type: binding; conditions: read-out: Ka (10^4/M) (converted)
[5] = target: the molecule itself; experiment: SEC; gel filtration on Superdex 200 10/300 GL; purified RsmI (Gly12-Pro258) eluted at 15.0 ml, compared with protein standards

Sequence of RsmI (full-length) (Escherichia coli, UniProt P67087, F144A) (P67087 whole entry F144A): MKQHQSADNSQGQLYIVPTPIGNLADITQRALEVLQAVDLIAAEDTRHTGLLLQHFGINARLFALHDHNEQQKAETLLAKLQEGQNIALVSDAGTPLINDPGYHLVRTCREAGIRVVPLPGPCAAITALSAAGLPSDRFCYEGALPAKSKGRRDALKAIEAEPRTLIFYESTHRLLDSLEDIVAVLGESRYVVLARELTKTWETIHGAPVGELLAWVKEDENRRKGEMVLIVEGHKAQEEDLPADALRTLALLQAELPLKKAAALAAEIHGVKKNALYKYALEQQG
Sequence of RsmI (full-length) (Escherichia coli, UniProt P67087, Y169A) (P67087 whole entry Y169A): as the sequence (P67087 whole entry F144A) above, with A144F, Y169A counted along it
Sequence of RsmI (full-length) (Escherichia coli, UniProt P67087) (P67087 whole entry): as the sequence (P67087 whole entry F144A) above, with A144F counted along it

| Molecule | X-ray crystal structure, 2.20 Å [1] | Kd [2] [µM] | Kd [3] [µM] | Kd [4] [µM] | stoichiometry N [5] |
| --- | --- | --- | --- | --- | --- |
| C[S+](CC[C@H](N)C(=O)O)C[C@H]1O[C@@H](n2cnc3c(N)ncnc32)[C@H](O)[C@@H]1O (some centres unmarked) [AdoMet] | coordinate and structure factor of RsmI-AdoMet complex have been deposited with the RCSB PDB | 67.6 | 24.2 | 23.3 |  |
| RsmI truncation Gly12-Pro258 (E. coli 16S rRNA 2'-O-methyltransferase RsmI) (domain or fragment, Escherichia coli, UniProt P67087 12-258, looked up, RsmI, AdoMet-dependent methyltransferase for 2'-O-methylation of C1402 in 16S rRNA, Escherichia coli, residues Gly12-Pro258; It was co-crystallised with the cofactor AdoMet; The asymmetric unit holds three molecules: one non-crystallographic dimer and one half of a crystallographic dimer; also called RmsI; RsmI (G12-P258); source: expressed and purified as reported previously [15]) GQLYIVPTPIGNLADITQRALEVLQAVDLIAAEDTRHTGLLLQHFGINARLFALHDHNEQQKAETLLAKLQEGQNIALVSDAGTPLINDPGYHLVRTCREAGIRVVPLPGPCAAITALSAAGLPSDRFCYEGFLPAKSKGRRDALKAIEAEPRTLIFYESTHRLLDSLEDIVAVLGESRYVVLARELTKTWETIHGAPVGELLAWVKEDENRRKGEMVLIVEGHKAQEEDLPADALRTLALLQAELP |  |  |  |  | 2 |
